# Ends that are not written are not given here.
# Legend:
# Format in all cases: binding, human
# [1] = system: antibodies (IgE and IgG) in sera of soybean-protein sensitive patients; experiment: Peptide microarray, recognition of peptides by patient sera (IgE and IgG, total); conditions: sera from 50 patients
# From the text: (§1) Epitope candidates were supplied externally (Neundorf, University of Cologne, Germany). The peptide is synthesised with the following structure: Ac-N-epitope sequence-C-Ebes-Lys(γ-N3)-amide (Ebes=amino-3,6-dioxaoctyl-succinamic acid). The peptide sequences were based on either the naïve soybean protein sequence (Pr) or the mimotope from phage display experiment (Ph). The peptide length varied between eight and nineteen amino acids. Glass slides were coated with Dibenzocyclooctyl (DBCO). The peptides were immobilized using different concentrations (81 ng/μl, 27 ng/μl or 9 ng/μl) on glymo-covered slides using click chemistry.
# (§2) Each slide was blocked for 30 min with PBS containing 0.1% (v/v) Tween-20 and 1% (w/v) BSA, pH 7.4. For the incubation with sera cover slides (HybriWell™. 60 mm×21 mm×0.15) were used. Sera from 50 patients with differently intense prick reaction to soy milk were tested. The slides were incubated with 100 μl sera from the soybean-sensitive patients diluted 1:50 in blocking buffer overnight at 4° C. After two washes in washing buffer (PBS containing 0.1% (v/v) Tween-20, pH 7.4) the slides were shaken at 200 rpm for 60 min in a mouse-anti human IgE antibody (Abcam, Cambridge, UK, ab99834) diluted to 100 ng/ml or goat-anti human IgG antibody Cy5 (Abcam, Cambridge, UK, ab97172) diluted to 100 ng/ml in blocking buffer. After two further washes, bound IgG and IgE were detected by incubating the array for 60 min at room temperature with the secondary Cy5-labeled goat anti-mouse antibody (life technologies, Thermo Fisher Scientific, Waltham, Mass., USA, A10524) diluted to 400 ng/ml in blocking buffer. Fluorescence signals on the array were detected in a microarray reader (Geneprix 4200A) at 635 nm and the data were evaluated using GenePix® Pro 6 software to determine the signal intensity of each peptide spot. The software calculated the signal to noise ratio (SNR) for every spot. An overall threshold of 5 signal to noise ratio units was set, and signals above this threshold were assumed to indicate positive recognition by the patient sera.
# [2] = system: IgG of sera from soybean-sensitive patients; experiment: Peptide microarray, immune status of soybean-sensitive patients: IgG detection; conditions: sera from 50 patients, diluted 1:50; positive = signal to noise ratio above 5
# From the text: as §1, §2
# [3] = system: IgE of sera from soybean-sensitive patients; experiment: Peptide microarray, immune status of soybean-sensitive patients: IgE detection; conditions: sera from 50 patients, diluted 1:50; positive = signal to noise ratio above 5
# From the text: as §1, §2
# [4] = system: antibodies of serum from patients with soy allergy; experiment: Phage display affinity selection and panning (ENTE1 library), sequencing and statistical motif analysis; conditions: for all three epitopes (SEQ ID NO.: 17, 20, 15) recognized by the same patient: 23 patients; for epitope recognized by patients / two epitopes (SEQ ID NO.: 15, SEQ ID NO.: 17) recognized by the same patients: number of patients out of 23; for sequence count (lcount): 2013_S1_2. Panning
# From the text: Strong immunodominant allergic proteins, such as P34 thiol protease (Gly m Bd 30K), are known to induce allergic reactions, whereas other soybean proteins, although no potent inducers of a primary allergic response, can nevertheless trigger effector responses due to their binding by IgE. […] For example, only 65% of soybean sensitive individuals carry IgE recognizing P34 thiol protease (Gly m Bd 30K), which is considered one of the strongest allergenic soybean proteins (Yang et al., 2011). […] To identify many specific epitopes, i.e. amino acid sequences of soybean proteins, recognized by antibodies of sensitive patients, with high resolution down to the individual amino acids involved, the inventors applied a novel approach using a specific random phage library (EP 14 166 662.8). This phage library is generated using triplet codons with specific limitations, such that most amino acids are regularly represented throughout the entire library. In consequence, the library covers an unusually broad range of sequence variability and allows particular reliable statistical analysis. The library was contacted with serum samples derived from a biobank of 50 different soybean protein sensitive patients. After phage selection, the amino acid sequences that were bound by the patients' antibodies (anti-[allergen antibody] amino acid sequence) were identified by next generation sequencing and the results statistically analyzed. To confirm the allergy relevance of the identified amino acid sequences, their reactivity with patient IgE was determined by peptide arrays. Thereby, the inventors identified more than 300 potentially allergenic epitopes from different soybean proteins. The identified epitopes could be assigned to a total of 23 soybean proteins (Table 1) including P34 thiol protease (Gly m Bd 30K), β-conglycinin (Gly m Bd60 K) and Gly m Bd 28K, which are considered major soybean allergenic proteins (Yang et al., 2011).
# 24 μg of serum protein from patients with soy allergy were diluted in 2.5 ml PBS and coated in protein binding Immuno™ Tubes with Maxisorp™ for 1 h at 4° C. at 18 rpm (negative control: PBS). The coated tubes were washed with 2.5 ml blocking buffer (5% NFDM/1×PBS) and incubated with 4 ml blocking buffer at 4° C. for at least 15 min (18 rpm). The tubes were washed three times with 4 ml wash buffer I (1×PBS). 1 ml blocking buffer containing 30 μg of non-allergic serum protein and the phage library ENTE1 was added to each tube. The tubes were incubated for 2 h at 4° C. (18 rpm). After incubation, the tubes were washed 5 times with 1 ml 0.1% Tween/1×PBS and subsequently with 0.5% Tween/1×PBS. Then the bound phages were eluted using 1 ml of elution buffer (0.1 M Glycin.HCl pH 2.2). The tubes were incubated 5 min and vortexed several times. The eluate was immediately neutralized with 200 μl neutralization buffer (1 M Tris.HCl pH 8.2). In the first selection round 4×10^11 cfu of the ENTE1-library were used per tube. In the second selection round 1000×the recovered phages were inserted.
# TG1 (λ) cells were grown in 250 ml baffled culture flasks in 10 ml dYT at 37° C. until they reached an OD600 about 0.5-1.0. The cells were incubated with eluted phage for 20 min at 37° C. with 100 rpm agitation. After incubation, the solution was immediately poured on dYT-agar plates (25×25 cm) containing 200 μg/ml ampicillin and incubated overnight at 30° C.
# After overnight incubation the colonies were resuspended in 25 ml dYT containing 1×10^10 cfu/ml M13K07. The cells were diluted in 25 ml dYT containing 500 μg/ml ampicillin and 1×10^10 cfu/ml M13K07 using a 250 ml baffled culture flasks to obtain a cell density of OD600 0.5. The cells were incubated for 1 h at 37° C. with 180 rpm agitation. Afterwards the culture was growing about 13 h at 30° C. with 180 rpm agitation. […]
Substance,total (IgE- and IgG-positive sera) [1],Number of IgG-positive sera [2],Number of IgE-positive sera [3],further results
SHHDQPRQHA (peptide P4) [28],18,6,12,
QHQQ,,,,"motive count, first panning ([4]; Serum 1, 1. Panning round): 407 counts; motive count, second panning ([4]; Serum 1, 2. Panning round): 825 counts"
HAANVVGNKESQREAR [Peptide P18],9,1,8,
DEGEQPRPFPFPRPR (peptide P7) [54],4,2,2,
SDKYQEEFQPR (peptide P10) [127],12,1,10,
EFLKYQQEQG (peptide P12) [127],24,12,12,
SQSHGFHGLCNRDHNCA (peptide P2) [100],8,1,7,
NSERD (glycine max) [SEQ ID NO.: 15],,,,"all three epitopes (SEQ ID NO.: 17, 20, 15) recognized by the same patient [4]: one; epitope recognized by patients [4]: 7/23; two epitopes (SEQ ID NO.: 15, SEQ ID NO.: 17) recognized by the same patients [4]: 5/23"
GEIMCWREVVTQHQQHA (glycine max) [SEQ ID NO.: 707],,,,sequence count (lcount) [4]: 122
QDQEEDEEDE (peptide P20) [104],7,2,5,
EVSFASQVLIY (peptide P3) [94],9,3,6,
"GFNLCNRDRPAP (Ac-GFNLCNRDRPAP; not fully specified (C-terminus); also: Ebes linker, place not given here, Lys(azide), place not given here) [Peptide P1, 100]",8,4,4,
FDQKESQHFS (peptide P17) [345],2,1,0,
HITFSREEGSI (peptide P5) [35],14,2,12,
EIPRPR (glycine max) [SEQ ID NO.: 20],,,,"all three epitopes (SEQ ID NO.: 17, 20, 15) recognized by the same patient [4]: one; epitope recognized by patients [4]: 3/23"
GIEPCSKYSQHQQHVQN (glycine max) [SEQ ID NO.: 706],,,,sequence count (lcount) [4]: 250
KVLFSREEGQQQ (peptide P6) [35],31,9,21,
RNQACHA (glycine max) [SEQ ID NO.: 17],,,,"all three epitopes (SEQ ID NO.: 17, 20, 15) recognized by the same patient [4]: one; epitope recognized by patients [4]: 15/23; two epitopes (SEQ ID NO.: 15, SEQ ID NO.: 17) recognized by the same patients [4]: 5/23"
HIQEEECEGDL (peptide P8) [50],4,2,2,
TEKYQQNSSG (peptide P11) [127],5,3,2,
GVYNSQVDDEEEQNQRD (peptide P13) [159],8,1,7,
VEEEEECEEGQI (peptide P9) [50],50,17,32,
HVVEQEFLD (peptide P14) [126],28,5,23,
GYNPCRQEEDEELHHKC (peptide P19) [104],15,6,9,
ISQQDRHRI (peptide P16) [154],42,13,28,
RRFYLAGNQEQEFL (peptide P15) [126],6,2,3,
